The values below are quoted from earlier work in patent US20050287096A1, “Method for improving the appearance of skin” (priority 2004, published 2005).

This data set deals with knee abrasions. The note with it: ointment containing 5% sucralfate, topical.

Take sucralfate: the “stopping of fusion from the abrasions” value (knee abrasions caused by falls during a basketball game) is “fusion to be stopped after twenty four hours”. The “healing of the abrasions” value (period after fusion stopped) is given as “good healing occurring over a three day period”.
